Results: patent US20100267561A1, “HERBICIDAL PYRIDAZINONE DERIVATIVES” (priority 2007, published 2010)

Legend:
Assay in all cases: Test E pre-/postemergence plant response
Type in all cases: in vivo
[1] = system: guineagrass (Panicum maximum); conditions: scale 0 to 100
Method in brief: (§1)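 In this greenhouse assay, sown seeds received preemergence treatment and young plants of 2 to 18 cm (1- to 4-leaf stage) received postemergence treatment, both with compound in a non-phytotoxic solvent and surfactant vehicle. Effects were rated visually 14 to 21 days later on a 0–100 control scale.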

[2] = system: surinam grass (Brachiaria decumbens); conditions: scale 0 to 100
Method in brief: as §1

[3] = system: bermudagrass (Cynodon dactylon); conditions: scale 0 to 100
Method in brief: as §1

[4] = system: black mustard (Brassica nigra); conditions: scale 0 to 100
Method in brief: as §1

[5] = system: itchgrass (Rottboellia cochinchinensis); conditions: scale 0 to 100
Method in brief: as §1

[6] = system: purple nutsedge (Cyperus rotundus); conditions: scale 0 to 100
Method in brief: as §1

[7] = system: quackgrass (Elytrigia repens); conditions: scale 0 to 100
Method in brief: as §1

[8] = system: broadleaf signalgrass (Brachiaria platyphylla); conditions: scale 0 to 100
Method in brief: as §1

[9] = system: large crabgrass (Digitaria sanguinalis); conditions: scale 0 to 100
Method in brief: as §1

[10] = system: green foxtail (Setaria viridis); conditions: scale 0 to 100
Method in brief: as §1

[11] = system: common mallow (Malva sylvestris); conditions: Postemergence, scale 0 to 100
Method in brief: as §1

[12] = system: common purslane (Portulaca oleracea); conditions: scale 0 to 100
Method in brief: as §1

[13] = system: dallisgrass (Paspalum dilatatum); conditions: scale 0 to 100
Method in brief: as §1

[14] = system: goosegrass (Eleusine indica); conditions: scale 0 to 100
Method in brief: as §1

CCc1cc(-c2ccc(Cl)cc2)nn1-c1c(OS(C)(=O)=O)cnn(C)c1=O [Compound 39]
30: Plant response rating, Quackgrass ([7]; Postemergence, 16 g ai/ha) | Plant response rating, Crabgrass, Large ([9]; 8 g ai/ha, Preemergence)
70: Plant response rating, Foxtail, Green ([10]; Postemergence, 16 g ai/ha) | Plant response rating, Dallisgrass ([13]; Postemergence, 16 g ai/ha) | Plant response rating, Goosegrass ([14]; Postemergence, 16 g ai/ha)
40: Plant response rating, Bermudagrass ([3]; Postemergence, 16 g ai/ha) | Plant response rating, Itchgrass ([5]; Postemergence, 31 g ai/ha)
98: Plant response rating, Crabgrass, Large ([9]; 31 g ai/ha, Preemergence) | Plant response rating, Crabgrass, Large ([9]; Postemergence, 62 g ai/ha) | Plant response rating, Foxtail, Green ([10]; 31 g ai/ha, Preemergence) | Plant response rating, Dallisgrass ([13]; 16 g ai/ha, Preemergence) | Plant response rating, Dallisgrass ([13]; 31 g ai/ha, Preemergence)
95: Plant response rating, Guineagrass ([1]; Postemergence, 62 g ai/ha) | Plant response rating, Surinam Grass ([2]; Postemergence, 8 g ai/ha) | Plant response rating, Bermudagrass ([3]; 31 g ai/ha, Preemergence) | Plant response rating, Quackgrass ([7]; 31 g ai/ha, Preemergence) | Plant response rating, Signalgrass ([8]; 31 g ai/ha, Preemergence) | Plant response rating, Signalgrass ([8]; Postemergence, 16 g ai/ha) | Plant response rating, Signalgrass ([8]; Postemergence, 31 g ai/ha) | Plant response rating, Crabgrass, Large ([9]; Postemergence, 31 g ai/ha) | Plant response rating, Foxtail, Green ([10]; Postemergence, 62 g ai/ha) | Plant response rating, Goosegrass ([14]; Postemergence, 62 g ai/ha)
25: Plant response rating, Itchgrass ([5]; Postemergence, 16 g ai/ha)
50: Plant response rating, Bermudagrass ([3]; Postemergence, 31 g ai/ha)
80: Plant response rating, Guineagrass ([1]; Postemergence, 8 g ai/ha) | Plant response rating, Guineagrass ([1]; Postemergence, 16 g ai/ha) | Plant response rating, Itchgrass ([5]; 62 g ai/ha, Preemergence) | Plant response rating, Goosegrass ([14]; 16 g ai/ha, Preemergence) | Plant response rating, Goosegrass ([14]; Postemergence, 31 g ai/ha)
20: Plant response rating, Bermudagrass ([3]; 8 g ai/ha, Preemergence) | Plant response rating, Itchgrass ([5]; Postemergence, 8 g ai/ha)
85: Plant response rating, Signalgrass ([8]; 16 g ai/ha, Preemergence)
60: Plant response rating, Itchgrass ([5]; 16 g ai/ha, Preemergence) | Plant response rating, Itchgrass ([5]; Postemergence, 62 g ai/ha) | Plant response rating, Quackgrass ([7]; 16 g ai/ha, Preemergence) | Plant response rating, Quackgrass ([7]; Postemergence, 31 g ai/ha) | Plant response rating, Quackgrass ([7]; Postemergence, 62 g ai/ha) | Plant response rating, Crabgrass, Large ([9]; 16 g ai/ha, Preemergence) | Plant response rating, Foxtail, Green ([10]; Postemergence, 8 g ai/ha) | Plant response rating, Dallisgrass ([13]; Postemergence, 8 g ai/ha)
35: Plant response rating, Bermudagrass ([3]; Postemergence, 8 g ai/ha) | Plant response rating, Signalgrass ([8]; Postemergence, 8 g ai/ha) | Plant response rating, Dallisgrass ([13]; 8 g ai/ha, Preemergence) | Plant response rating, Goosegrass ([14]; Postemergence, 8 g ai/ha)
75: Plant response rating, Bermudagrass ([3]; 16 g ai/ha, Preemergence) | Plant response rating, Itchgrass ([5]; 31 g ai/ha, Preemergence) | Plant response rating, Foxtail, Green ([10]; 8 g ai/ha, Preemergence) | Plant response rating, Foxtail, Green ([10]; Postemergence, 31 g ai/ha) | Plant response rating, Dallisgrass ([13]; Postemergence, 31 g ai/ha) | Plant response rating, Dallisgrass ([13]; Postemergence, 62 g ai/ha) | Plant response rating, Goosegrass ([14]; 8 g ai/ha, Preemergence)
0: Plant response rating, Mustard, Black ([4]; 8 g ai/ha, Preemergence) | Plant response rating, Mustard, Black ([4]; 16 g ai/ha, Preemergence) | Plant response rating, Mustard, Black ([4]; 31 g ai/ha, Preemergence) | Plant response rating, Mustard, Black ([4]; 62 g ai/ha, Preemergence) | Plant response rating, Mustard, Black ([4]; Postemergence, 8 g ai/ha) | Plant response rating, Mustard, Black ([4]; Postemergence, 16 g ai/ha) | Plant response rating, Mustard, Black ([4]; Postemergence, 31 g ai/ha) | Plant response rating, Mustard, Black ([4]; Postemergence, 62 g ai/ha) | Plant response rating, Nutsedge, Purple ([6]; 16 g ai/ha, Preemergence) | Plant response rating, Nutsedge, Purple ([6]; 31 g ai/ha, Preemergence) | Plant response rating, Nutsedge, Purple ([6]; Postemergence, 8 g ai/ha) | Plant response rating, Nutsedge, Purple ([6]; Postemergence, 16 g ai/ha) | Plant response rating, Nutsedge, Purple ([6]; Postemergence, 31 g ai/ha) | Plant response rating, Nutsedge, Purple ([6]; Postemergence, 62 g ai/ha) | Plant response rating, Quackgrass ([7]; Postemergence, 8 g ai/ha) | Plant response rating, Mallow ([11]; 8 g ai/ha) | Plant response rating, Mallow ([11]; 16 g ai/ha) | Plant response rating, Mallow ([11]; 31 g ai/ha) | Plant response rating, Mallow ([11]; 62 g ai/ha) | Plant response rating, Purslane ([12]; 16 g ai/ha, Preemergence) | Plant response rating, Purslane ([12]; 31 g ai/ha, Preemergence) | Plant response rating, Purslane ([12]; 62 g ai/ha, Preemergence) | Plant response rating, Purslane ([12]; Postemergence, 8 g ai/ha) | Plant response rating, Purslane ([12]; Postemergence, 16 g ai/ha) | Plant response rating, Purslane ([12]; Postemergence, 31 g ai/ha) | Plant response rating, Purslane ([12]; Postemergence, 62 g ai/ha)
65: Plant response rating, Bermudagrass ([3]; Postemergence, 62 g ai/ha) | Plant response rating, Crabgrass, Large ([9]; Postemergence, 8 g ai/ha)
100: Plant response rating, Guineagrass ([1]; 16 g ai/ha, Preemergence) | Plant response rating, Guineagrass ([1]; 31 g ai/ha, Preemergence) | Plant response rating, Guineagrass ([1]; 62 g ai/ha, Preemergence) | Plant response rating, Surinam Grass ([2]; 16 g ai/ha, Preemergence) | Plant response rating, Surinam Grass ([2]; 31 g ai/ha, Preemergence) | Plant response rating, Surinam Grass ([2]; 62 g ai/ha, Preemergence) | Plant response rating, Surinam Grass ([2]; Postemergence, 16 g ai/ha) | Plant response rating, Surinam Grass ([2]; Postemergence, 31 g ai/ha) | Plant response rating, Surinam Grass ([2]; Postemergence, 62 g ai/ha) | Plant response rating, Bermudagrass ([3]; 62 g ai/ha, Preemergence) | Plant response rating, Quackgrass ([7]; 62 g ai/ha, Preemergence) | Plant response rating, Signalgrass ([8]; 62 g ai/ha, Preemergence) | Plant response rating, Signalgrass ([8]; Postemergence, 62 g ai/ha) | Plant response rating, Crabgrass, Large ([9]; 62 g ai/ha, Preemergence) | Plant response rating, Foxtail, Green ([10]; 62 g ai/ha, Preemergence) | Plant response rating, Dallisgrass ([13]; 62 g ai/ha, Preemergence) | Plant response rating, Goosegrass ([14]; 31 g ai/ha, Preemergence) | Plant response rating, Goosegrass ([14]; 62 g ai/ha, Preemergence)
90: Plant response rating, Guineagrass ([1]; Postemergence, 31 g ai/ha) | Plant response rating, Crabgrass, Large ([9]; Postemergence, 16 g ai/ha) | Plant response rating, Foxtail, Green ([10]; 16 g ai/ha, Preemergence)
